Some test systems named below: HCT-15 colon; NCI-H226 lung; A549 NSCLC; ACHN renal; K-562 leukemia; SF-295 CNS; RPMI-8226 leukemia; SK-OV-3 ovarian; SK-MEL-2 melanoma; HL-60(TB) leukemia.
Assay in all cases: NCI-60 cell line screen, 48 h

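96-well plates; 48 h exposure; 5 concentrations. Endpoints by linear interpolation between flanking doses. Not reached: highest tested concentration assigned. The concentration for 50% growth inhibition is given as GI50. TGI marks complete inhibition of growth.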

Take `CNCCNc1c2c(c(NCCNC)c3c(CN(C)C)c[nH]c13)C(=O)c1ccccc1C2=O`: the GI50 with HCT-15 colon is 5.7 µM; in the assay with NCI-H226 lung it was 6.69 µM; in the assay with A549 NSCLC, 3.42 µM; in the assay on ACHN renal it was 3.52 µM; with K-562 leukemia, 1.81 µM; in the assay with SF-295 CNS it was 1.59 µM. Moreover, the GI50 was 0.938 µM with RPMI-8226 leukemia, 17.1 µM in the assay on SK-OV-3 ovarian, 2.94 µM in the assay with SK-MEL-2 melanoma and 4.14 µM in the assay on HL-60(TB) leukemia. Moreover, the TGI is 20.5 µM in the assay with HCT-15 colon; 24.2 µM in the assay with NCI-H226 lung; 11.2 µM with A549 NSCLC; 14.4 µM in the assay with ACHN renal; more than 100 µM in the assay with K-562 leukemia; 9.16 µM in the assay with SF-295 CNS. Further, the TGI in the assay with RPMI-8226 leukemia was 5.2 µM; in the assay on SK-OV-3 ovarian it was 50.8 µM; with SK-MEL-2 melanoma, 16.4 µM; with HL-60(TB) leukemia, more than 100 µM.
`Cc1nnc(S(=O)(=O)c2ccc(N=Nc3c(N)nc(N)nc3N)cc2)s1`: the TGI in the assay with HCT-15 colon, with NCI-H226 lung, in the assay on A549 NSCLC, with ACHN renal, in the assay with K-562 leukemia and in the assay with SF-295 CNS was more than 100 µM throughout. In addition, the TGI is more than 100 µM in the assay with RPMI-8226 leukemia, more than 100 µM in the assay with SK-OV-3 ovarian, more than 100 µM in the assay on SK-MEL-2 melanoma and 97.8 µM in the assay on HL-60(TB) leukemia.
Take `COc1ccc2c(c1)C(C)Cc1c(Cl)ncnc1N2C` (centres undefined): the GI50 was 0.402 µM in the assay on HCT-15 colon; 0.213 µM in the assay with NCI-H226 lung; 0.432 µM in the assay on A549 NSCLC; 0.852 µM with ACHN renal; 2.08 µM with K-562 leukemia; 0.375 µM with SF-295 CNS. Further, the GI50 in the assay on RPMI-8226 leukemia was 0.629 µM; in the assay with SK-OV-3 ovarian, 0.504 µM; with SK-MEL-2 melanoma, 0.405 µM; with HL-60(TB) leukemia, 2 µM. Moreover, the TGI in the assay on HCT-15 colon is more than 32.3 µM; with NCI-H226 lung, 0.481 µM; with A549 NSCLC, more than 100 µM; with ACHN renal, more than 100 µM; with K-562 leukemia it was more than 100 µM; in the assay on SF-295 CNS it was more than 48.1 µM. Besides, the TGI amounted to 16 µM with RPMI-8226 leukemia, 17.3 µM in the assay with SK-OV-3 ovarian, 2.12 µM in the assay on SK-MEL-2 melanoma and 7.06 µM in the assay on HL-60(TB) leukemia.
For the molecule `Cc1ccccc1N1C(=O)/C(=C/c2ccc(N(CCC#N)CCC#N)cc2)N=C1c1cc([N+](=O)[O-])ccc1Cl`, the TGI with HCT-15 colon, in the assay on NCI-H226 lung, in the assay on ACHN renal, with K-562 leukemia, with SF-295 CNS and in the assay on RPMI-8226 leukemia was more than 100 µM in each case. For the same molecule, the TGI in the assay on SK-OV-3 ovarian, in the assay with SK-MEL-2 melanoma and in the assay on HL-60(TB) leukemia was more than 100 µM throughout.
For the molecule `Clc1ccc2c(NCCCNc3nccc(Nc4ccc(Br)cc4)n3)ccnc2c1`, the GI50 with HCT-15 colon was 1.28 µM; with NCI-H226 lung it was 2.74 µM; with A549 NSCLC it was 1.78 µM; with ACHN renal, 1.66 µM; in the assay on SF-295 CNS it was 1.56 µM; in the assay on RPMI-8226 leukemia, 1.97 µM. Further, the GI50 was 1.55 µM in the assay on SK-OV-3 ovarian, 2.1 µM in the assay on SK-MEL-2 melanoma and 2.13 µM with HL-60(TB) leukemia. For the same molecule, the TGI with HCT-15 colon came to 2.7 µM; with NCI-H226 lung it was 7.37 µM; in the assay with A549 NSCLC it was 3.52 µM; in the assay with ACHN renal, 3.2 µM; in the assay on SF-295 CNS it was 2.97 µM; in the assay with RPMI-8226 leukemia, 4.45 µM. Also, the values for the TGI in the assay on SK-OV-3 ovarian, with SK-MEL-2 melanoma and in the assay with HL-60(TB) leukemia were 2.91 µM, 3.67 µM and 4.94 µM, respectively.
For the molecule `COCCOc1cc(F)c2c(Nc3ccc(NC(=O)Cn4cc(C(C)C)nn4)cc3)ncnc2c1`, the GI50 in the assay on HCT-15 colon is more than 100 µM; with NCI-H226 lung it was 60.8 µM; with A549 NSCLC, more than 100 µM; in the assay on ACHN renal, 51.5 µM; in the assay with K-562 leukemia, 10.2 µM; in the assay with SF-295 CNS it was 53.5 µM. Besides, the GI50 with RPMI-8226 leukemia is more than 100 µM; with SK-MEL-2 melanoma it was 44.7 µM; with HL-60(TB) leukemia, more than 100 µM. Also, the TGI in the assay with HCT-15 colon, in the assay with NCI-H226 lung, with A549 NSCLC, in the assay with ACHN renal, in the assay on K-562 leukemia and in the assay on SF-295 CNS was more than 100 µM in each case. Further, the TGI with RPMI-8226 leukemia, in the assay on SK-MEL-2 melanoma and in the assay on HL-60(TB) leukemia was more than 100 µM in each case.
With `CCCCN(CCCC)CC(C(=O)Nc1ccc([N+](=O)[O-])cc1[N+](=O)[O-])/C(C)=N\NC(=S)NN` (centres undefined), the TGI in the assay on NCI-H226 lung, in the assay on A549 NSCLC, with ACHN renal, in the assay with K-562 leukemia, in the assay with SF-295 CNS and in the assay with RPMI-8226 leukemia was more than 100 µM in each case. The TGI in the assay on SK-OV-3 ovarian, in the assay on SK-MEL-2 melanoma and in the assay on HL-60(TB) leukemia was more than 100 µM in each case.
With `CC/C(=C(/c1ccc(OCCN(C)C)cc1)c1ccc(OC(=O)CCCCC(=O)c2c(C)[nH]c(/C=C3\N=C(c4ccc[nH]4)C=C3OC)c2C)cc1)c1ccccc1`, the GI50 with HCT-15 colon is 4.44 µM; with NCI-H226 lung, 14.2 µM; in the assay with A549 NSCLC, 3.92 µM; with ACHN renal, 4.84 µM; in the assay on K-562 leukemia it was 3.16 µM; with RPMI-8226 leukemia, 3.17 µM. The GI50 was 14.1 µM in the assay on SK-OV-3 ovarian, 16.7 µM in the assay on SK-MEL-2 melanoma and 18 µM in the assay with HL-60(TB) leukemia. Moreover, the TGI stood at 28.5 µM in the assay with HCT-15 colon; 34.3 µM in the assay with NCI-H226 lung; 15.7 µM with A549 NSCLC; 22.8 µM with ACHN renal; 12.6 µM in the assay with K-562 leukemia; 18.8 µM in the assay on RPMI-8226 leukemia. The TGI in the assay with SK-OV-3 ovarian worked out at 27 µM; in the assay with SK-MEL-2 melanoma, 33.5 µM; with HL-60(TB) leukemia it was 41.9 µM.
With `CC(=O)O.CC(=O)O.CC(=O)O.CC(=O)O.CC(=O)O.CC(=O)O.O.[Ti].[Ti]`, the GI50 with HCT-15 colon, in the assay with NCI-H226 lung, in the assay with A549 NSCLC, in the assay with ACHN renal, with K-562 leukemia and in the assay on SF-295 CNS was more than 100 µM throughout. The GI50 with RPMI-8226 leukemia, in the assay on SK-MEL-2 melanoma and in the assay with HL-60(TB) leukemia was more than 100 µM throughout. In addition, the TGI in the assay with HCT-15 colon, in the assay with NCI-H226 lung, in the assay on A549 NSCLC, with ACHN renal, with K-562 leukemia and in the assay with SF-295 CNS was more than 100 µM each time. Moreover, the TGI with RPMI-8226 leukemia, in the assay on SK-MEL-2 melanoma and with HL-60(TB) leukemia was more than 100 µM in each case.
On to `Cc1ccc(S(=O)(=O)NCC2CCCCC2=O)cc1` (centres undefined), for which the TGI with HCT-15 colon, in the assay on NCI-H226 lung, with A549 NSCLC, with K-562 leukemia, with SF-295 CNS and in the assay with RPMI-8226 leukemia was more than 100 µM in each case. In addition, the TGI with SK-OV-3 ovarian, with SK-MEL-2 melanoma and with HL-60(TB) leukemia was more than 100 µM throughout.
